pIC50, pKi: −log10 of the molar value.
Assays:
[1] = target: T1, Mineralocorticoid receptor (Homo sapiens, UniProt P08235, C808S)
[2] = target: T1, Mineralocorticoid receptor; remark: listed apart in the source
[3] = target: Cytochrome P450 2C9 (Homo sapiens, UniProt P11712); test: Inhibition of CYP2C9 (unknown origin); type: ADME
[4] = target: Cytochrome P450 2D6 (Homo sapiens, UniProt P10635); test: Inhibition of CYP2D6 (unknown origin); type: ADME
[5] = target: 5-hydroxytryptamine receptor 2B (Homo sapiens) (UniProt P41595); test: Inhibition of serotonin 5H2B receptor (unknown origin) at 10 uM
[6] = target: Histamine H1 receptor (Homo sapiens) (UniProt P35367); test: Inhibition of histamine H1 receptor (unknown origin) at 10 uM
[7] = target: hERG (KCNH2) (Homo sapiens, UniProt Q12809); test: Inhibition of human ERG (unknown origin) at 10 uM
[8] = target: T2, Alpha-2A adrenergic receptor (Homo sapiens) (UniProt P08913); test: Inhibition of adrenergic alpha2A receptor (unknown origin) at 10 uM
T2 sequence (whole entry): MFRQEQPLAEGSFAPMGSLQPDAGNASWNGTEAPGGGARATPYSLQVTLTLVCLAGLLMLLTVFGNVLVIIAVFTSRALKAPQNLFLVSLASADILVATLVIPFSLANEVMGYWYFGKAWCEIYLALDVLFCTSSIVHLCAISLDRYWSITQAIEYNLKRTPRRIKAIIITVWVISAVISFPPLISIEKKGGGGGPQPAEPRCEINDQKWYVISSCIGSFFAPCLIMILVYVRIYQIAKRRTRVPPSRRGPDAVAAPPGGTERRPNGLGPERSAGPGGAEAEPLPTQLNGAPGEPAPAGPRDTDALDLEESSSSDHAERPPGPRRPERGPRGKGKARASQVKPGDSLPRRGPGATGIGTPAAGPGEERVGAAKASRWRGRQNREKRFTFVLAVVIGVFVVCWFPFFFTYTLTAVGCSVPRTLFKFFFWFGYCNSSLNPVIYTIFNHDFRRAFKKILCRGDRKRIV

[9] = Half life of compound in rat liver microsomes; type: ADME
[10] = target: T3, Progesterone receptor (Homo sapiens, UniProt P06401); test: Inhibition of GST-tagged human progesterone receptor LBD domain expressed in insect cells by Gal4-based fluorescence polarization assay
T3 sequence (P06401 whole entry): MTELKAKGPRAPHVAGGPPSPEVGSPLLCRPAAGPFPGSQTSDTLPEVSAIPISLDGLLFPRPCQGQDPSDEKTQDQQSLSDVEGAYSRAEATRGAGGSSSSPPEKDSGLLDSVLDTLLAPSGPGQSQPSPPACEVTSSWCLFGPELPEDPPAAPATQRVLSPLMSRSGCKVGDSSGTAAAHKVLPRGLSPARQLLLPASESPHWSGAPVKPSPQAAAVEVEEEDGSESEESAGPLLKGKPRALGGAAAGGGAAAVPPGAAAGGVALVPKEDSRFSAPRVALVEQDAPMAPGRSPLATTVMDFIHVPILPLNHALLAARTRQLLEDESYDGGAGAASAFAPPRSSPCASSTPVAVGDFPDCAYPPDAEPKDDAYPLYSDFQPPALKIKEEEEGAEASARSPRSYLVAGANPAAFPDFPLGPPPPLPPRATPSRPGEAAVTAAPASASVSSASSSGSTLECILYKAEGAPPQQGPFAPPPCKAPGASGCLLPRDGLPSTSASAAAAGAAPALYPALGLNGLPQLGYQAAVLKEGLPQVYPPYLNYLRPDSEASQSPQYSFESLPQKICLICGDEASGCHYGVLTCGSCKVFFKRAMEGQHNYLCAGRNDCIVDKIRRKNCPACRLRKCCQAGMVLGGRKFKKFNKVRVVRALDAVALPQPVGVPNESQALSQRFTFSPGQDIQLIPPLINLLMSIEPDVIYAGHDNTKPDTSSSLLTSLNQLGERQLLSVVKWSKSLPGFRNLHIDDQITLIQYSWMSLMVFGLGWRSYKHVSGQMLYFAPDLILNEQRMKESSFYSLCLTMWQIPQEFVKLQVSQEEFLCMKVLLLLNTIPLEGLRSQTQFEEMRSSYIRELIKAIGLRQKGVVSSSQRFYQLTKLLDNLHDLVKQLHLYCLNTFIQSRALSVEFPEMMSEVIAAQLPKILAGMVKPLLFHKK

[11] = target: T4, Glucocorticoid receptor (Homo sapiens, UniProt P04150); test: Inhibition of GST-tagged human glucocorticoid receptor LBD domain expressed in insect cells at by Gal4-based fluorescence polarization assay
T4 sequence (P04150 whole entry): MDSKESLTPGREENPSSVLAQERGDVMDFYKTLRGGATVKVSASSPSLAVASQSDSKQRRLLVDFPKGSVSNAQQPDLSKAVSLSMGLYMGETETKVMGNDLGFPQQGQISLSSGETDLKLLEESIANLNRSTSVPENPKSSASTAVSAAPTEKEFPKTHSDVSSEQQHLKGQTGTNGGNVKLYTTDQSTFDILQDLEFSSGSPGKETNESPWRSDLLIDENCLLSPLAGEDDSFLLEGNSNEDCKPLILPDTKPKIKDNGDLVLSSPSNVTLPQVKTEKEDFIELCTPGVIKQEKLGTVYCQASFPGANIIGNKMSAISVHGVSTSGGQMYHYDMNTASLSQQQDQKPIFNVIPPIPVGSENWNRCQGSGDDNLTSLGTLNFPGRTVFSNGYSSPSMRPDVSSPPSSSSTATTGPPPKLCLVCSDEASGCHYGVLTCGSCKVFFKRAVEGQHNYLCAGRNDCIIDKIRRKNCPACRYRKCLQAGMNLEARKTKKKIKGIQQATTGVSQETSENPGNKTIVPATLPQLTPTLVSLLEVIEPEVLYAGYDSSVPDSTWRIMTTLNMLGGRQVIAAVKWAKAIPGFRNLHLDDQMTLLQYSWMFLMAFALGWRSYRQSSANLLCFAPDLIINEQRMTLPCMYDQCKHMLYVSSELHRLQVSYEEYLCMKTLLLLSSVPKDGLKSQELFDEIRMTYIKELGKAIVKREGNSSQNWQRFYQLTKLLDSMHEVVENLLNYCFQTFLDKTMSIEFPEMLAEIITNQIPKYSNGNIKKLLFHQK

[12] = target: T5, Estrogen receptor (Homo sapiens, UniProt P03372); test: Inhibition of estrogen receptor (unknown origin) by Gal4-based luciferase assay
T5 sequence (P03372 whole entry): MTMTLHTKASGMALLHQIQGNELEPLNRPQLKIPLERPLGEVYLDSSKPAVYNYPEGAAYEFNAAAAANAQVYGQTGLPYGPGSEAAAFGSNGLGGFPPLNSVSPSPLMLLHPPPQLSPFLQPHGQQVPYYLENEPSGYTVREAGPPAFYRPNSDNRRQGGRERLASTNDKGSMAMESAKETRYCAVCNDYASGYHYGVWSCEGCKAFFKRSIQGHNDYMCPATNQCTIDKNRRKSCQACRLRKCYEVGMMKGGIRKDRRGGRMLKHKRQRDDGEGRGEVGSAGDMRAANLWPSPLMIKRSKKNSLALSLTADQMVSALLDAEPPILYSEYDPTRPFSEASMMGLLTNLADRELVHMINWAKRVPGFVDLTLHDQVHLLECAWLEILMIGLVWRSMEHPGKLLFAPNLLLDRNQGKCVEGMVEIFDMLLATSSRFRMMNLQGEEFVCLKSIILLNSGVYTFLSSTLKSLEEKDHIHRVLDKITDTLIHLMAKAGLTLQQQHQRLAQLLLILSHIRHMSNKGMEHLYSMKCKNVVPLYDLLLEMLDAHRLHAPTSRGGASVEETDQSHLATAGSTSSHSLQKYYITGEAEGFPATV

[13] = target: Cytochrome P450 3A4 (Homo sapiens, UniProt P08684)
Cytochrome P450 3A4, sequence (P08684 whole entry): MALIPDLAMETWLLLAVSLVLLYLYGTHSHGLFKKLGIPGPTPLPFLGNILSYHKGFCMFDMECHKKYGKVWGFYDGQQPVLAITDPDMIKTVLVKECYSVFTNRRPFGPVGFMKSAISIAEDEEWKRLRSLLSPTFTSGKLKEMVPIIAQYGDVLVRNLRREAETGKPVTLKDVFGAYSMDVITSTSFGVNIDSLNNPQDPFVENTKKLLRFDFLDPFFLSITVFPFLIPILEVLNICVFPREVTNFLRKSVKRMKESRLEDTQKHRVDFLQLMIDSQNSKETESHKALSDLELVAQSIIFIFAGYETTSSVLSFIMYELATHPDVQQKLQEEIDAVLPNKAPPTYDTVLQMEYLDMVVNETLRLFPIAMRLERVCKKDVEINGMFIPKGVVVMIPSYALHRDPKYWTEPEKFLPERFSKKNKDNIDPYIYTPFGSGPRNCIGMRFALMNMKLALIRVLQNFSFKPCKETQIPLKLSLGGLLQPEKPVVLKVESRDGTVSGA
Description: Inhibition of CYP3A4 (unknown origin)

5-hydroxytryptamine receptor 2B (Homo sapiens), sequence (P41595 whole entry): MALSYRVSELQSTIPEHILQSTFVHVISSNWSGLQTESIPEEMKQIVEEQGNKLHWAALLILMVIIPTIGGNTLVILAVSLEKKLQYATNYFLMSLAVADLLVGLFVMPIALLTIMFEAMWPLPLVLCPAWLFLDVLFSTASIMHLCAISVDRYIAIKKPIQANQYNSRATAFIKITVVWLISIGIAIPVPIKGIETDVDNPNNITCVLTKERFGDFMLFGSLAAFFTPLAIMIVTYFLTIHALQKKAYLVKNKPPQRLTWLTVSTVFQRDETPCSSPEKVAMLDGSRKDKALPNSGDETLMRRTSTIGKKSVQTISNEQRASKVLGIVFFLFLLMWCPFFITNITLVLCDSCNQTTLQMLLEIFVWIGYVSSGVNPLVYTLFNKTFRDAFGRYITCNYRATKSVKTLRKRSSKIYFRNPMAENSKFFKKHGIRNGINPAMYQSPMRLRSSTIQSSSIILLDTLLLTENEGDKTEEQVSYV
Cytochrome P450 2D6, sequence (P10635 whole entry): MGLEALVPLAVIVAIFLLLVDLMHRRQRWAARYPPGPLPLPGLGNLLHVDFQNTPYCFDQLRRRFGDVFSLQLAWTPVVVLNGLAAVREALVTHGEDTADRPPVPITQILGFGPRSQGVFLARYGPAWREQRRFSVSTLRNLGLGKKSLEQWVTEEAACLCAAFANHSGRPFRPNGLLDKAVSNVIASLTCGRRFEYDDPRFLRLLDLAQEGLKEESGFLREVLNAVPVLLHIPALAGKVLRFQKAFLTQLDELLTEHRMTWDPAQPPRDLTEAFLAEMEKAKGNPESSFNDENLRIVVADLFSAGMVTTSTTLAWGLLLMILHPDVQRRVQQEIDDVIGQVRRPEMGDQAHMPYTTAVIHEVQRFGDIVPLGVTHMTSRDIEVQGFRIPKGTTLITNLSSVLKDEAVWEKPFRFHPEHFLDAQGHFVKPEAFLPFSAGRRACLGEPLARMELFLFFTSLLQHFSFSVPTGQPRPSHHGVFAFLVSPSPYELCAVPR
Histamine H1 receptor (Homo sapiens), sequence (P35367 whole entry): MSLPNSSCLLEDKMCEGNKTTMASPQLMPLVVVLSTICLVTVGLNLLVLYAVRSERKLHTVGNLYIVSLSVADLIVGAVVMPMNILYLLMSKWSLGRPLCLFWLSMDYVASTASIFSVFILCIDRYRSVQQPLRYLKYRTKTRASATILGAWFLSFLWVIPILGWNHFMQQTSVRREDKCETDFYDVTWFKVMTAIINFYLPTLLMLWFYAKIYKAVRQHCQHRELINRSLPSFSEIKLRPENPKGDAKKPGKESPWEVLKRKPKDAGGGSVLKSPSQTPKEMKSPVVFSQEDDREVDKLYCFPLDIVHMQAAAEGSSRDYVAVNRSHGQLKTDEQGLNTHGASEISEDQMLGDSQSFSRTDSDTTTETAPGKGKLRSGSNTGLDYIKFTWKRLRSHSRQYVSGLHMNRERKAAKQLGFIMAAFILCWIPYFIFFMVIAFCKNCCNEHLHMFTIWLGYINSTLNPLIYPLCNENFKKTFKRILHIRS
Cytochrome P450 2C9, sequence (P11712 whole entry): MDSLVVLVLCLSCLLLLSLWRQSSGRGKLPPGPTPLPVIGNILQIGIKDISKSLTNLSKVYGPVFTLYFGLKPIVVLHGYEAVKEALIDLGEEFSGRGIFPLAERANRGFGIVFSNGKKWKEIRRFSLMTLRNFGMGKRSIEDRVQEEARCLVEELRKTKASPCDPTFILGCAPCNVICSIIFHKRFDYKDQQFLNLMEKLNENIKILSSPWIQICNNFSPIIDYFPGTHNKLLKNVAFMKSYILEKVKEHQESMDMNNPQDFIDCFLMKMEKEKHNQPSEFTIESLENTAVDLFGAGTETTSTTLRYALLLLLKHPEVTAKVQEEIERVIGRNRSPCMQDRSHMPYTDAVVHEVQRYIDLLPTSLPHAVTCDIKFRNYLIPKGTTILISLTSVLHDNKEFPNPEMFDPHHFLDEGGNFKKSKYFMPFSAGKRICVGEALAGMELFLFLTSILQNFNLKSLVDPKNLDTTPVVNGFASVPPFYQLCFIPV
hERG (KCNH2), sequence (Q12809 whole entry): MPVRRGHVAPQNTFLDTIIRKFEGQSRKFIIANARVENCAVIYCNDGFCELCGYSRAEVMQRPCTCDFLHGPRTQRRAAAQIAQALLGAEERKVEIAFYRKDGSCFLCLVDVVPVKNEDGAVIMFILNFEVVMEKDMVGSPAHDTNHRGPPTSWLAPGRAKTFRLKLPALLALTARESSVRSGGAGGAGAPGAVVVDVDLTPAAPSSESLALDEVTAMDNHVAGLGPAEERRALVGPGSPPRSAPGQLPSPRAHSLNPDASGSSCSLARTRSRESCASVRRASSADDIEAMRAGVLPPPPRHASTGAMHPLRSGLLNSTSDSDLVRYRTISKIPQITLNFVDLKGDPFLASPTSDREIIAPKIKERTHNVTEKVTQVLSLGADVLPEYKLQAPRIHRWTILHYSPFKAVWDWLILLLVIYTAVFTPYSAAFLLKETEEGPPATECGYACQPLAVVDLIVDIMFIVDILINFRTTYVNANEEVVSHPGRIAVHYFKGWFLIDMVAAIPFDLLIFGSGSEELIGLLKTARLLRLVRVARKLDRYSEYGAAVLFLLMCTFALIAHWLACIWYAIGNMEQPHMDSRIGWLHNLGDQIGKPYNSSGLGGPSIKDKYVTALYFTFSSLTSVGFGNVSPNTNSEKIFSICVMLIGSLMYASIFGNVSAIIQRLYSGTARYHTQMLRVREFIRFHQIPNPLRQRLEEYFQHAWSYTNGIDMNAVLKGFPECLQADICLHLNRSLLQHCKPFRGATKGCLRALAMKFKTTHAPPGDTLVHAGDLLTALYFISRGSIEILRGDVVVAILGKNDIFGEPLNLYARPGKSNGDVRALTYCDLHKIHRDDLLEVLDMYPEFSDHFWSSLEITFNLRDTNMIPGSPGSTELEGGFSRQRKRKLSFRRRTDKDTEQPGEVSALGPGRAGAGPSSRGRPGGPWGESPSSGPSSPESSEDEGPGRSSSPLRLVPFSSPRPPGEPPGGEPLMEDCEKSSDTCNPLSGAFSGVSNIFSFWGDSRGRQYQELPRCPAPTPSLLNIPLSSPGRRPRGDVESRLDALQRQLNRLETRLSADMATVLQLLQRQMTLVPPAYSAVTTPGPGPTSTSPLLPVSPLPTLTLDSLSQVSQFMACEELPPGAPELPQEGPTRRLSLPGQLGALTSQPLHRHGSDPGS
T1 sequence (P08235 whole entry C808S): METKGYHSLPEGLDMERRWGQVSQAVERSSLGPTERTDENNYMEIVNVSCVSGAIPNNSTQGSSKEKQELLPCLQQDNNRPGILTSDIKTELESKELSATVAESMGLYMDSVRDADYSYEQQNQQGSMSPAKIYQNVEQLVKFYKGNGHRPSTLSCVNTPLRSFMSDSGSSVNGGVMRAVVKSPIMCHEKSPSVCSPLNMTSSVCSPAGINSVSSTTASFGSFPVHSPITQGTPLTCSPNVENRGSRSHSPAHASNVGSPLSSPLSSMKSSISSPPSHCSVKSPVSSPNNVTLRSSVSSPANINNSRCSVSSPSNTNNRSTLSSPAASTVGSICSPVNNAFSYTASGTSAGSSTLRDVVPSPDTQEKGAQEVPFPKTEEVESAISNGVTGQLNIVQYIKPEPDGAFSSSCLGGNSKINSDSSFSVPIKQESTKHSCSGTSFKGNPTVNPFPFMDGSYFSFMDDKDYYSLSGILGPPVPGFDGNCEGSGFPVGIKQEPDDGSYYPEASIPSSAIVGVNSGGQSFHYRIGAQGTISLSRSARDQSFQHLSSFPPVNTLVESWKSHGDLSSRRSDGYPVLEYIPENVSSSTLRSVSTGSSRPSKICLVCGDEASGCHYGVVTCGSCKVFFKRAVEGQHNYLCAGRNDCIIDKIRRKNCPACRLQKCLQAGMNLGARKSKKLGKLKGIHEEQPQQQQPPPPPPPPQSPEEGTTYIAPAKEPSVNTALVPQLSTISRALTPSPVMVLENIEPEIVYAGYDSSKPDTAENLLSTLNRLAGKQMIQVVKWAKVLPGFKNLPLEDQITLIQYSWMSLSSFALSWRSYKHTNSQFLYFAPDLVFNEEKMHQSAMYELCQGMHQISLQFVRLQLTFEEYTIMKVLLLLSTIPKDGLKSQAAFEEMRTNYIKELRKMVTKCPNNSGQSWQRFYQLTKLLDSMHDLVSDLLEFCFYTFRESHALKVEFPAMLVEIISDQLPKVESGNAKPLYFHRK

CN(Cc1ccc2c(c1)NC(=O)CO2)c1ccc(F)cc1F
pIC50 [1]: 6.51
pKi [2]: 6.64

O=C1COc2ccc(/C=C(\c3ccccc3)c3ccc(F)cc3F)cc2N1
pIC50 [1]: 5.80
pKi [2]: 7.26

O=C1COc2ccc(COc3ccc(F)cc3F)cc2N1
pIC50 [1]: 5.74
pKi [2]: 6.01

CN(C)CC(=O)N1CCC2(CC1)C(=O)Nc1cc(/C=C3\c4ccccc4COc4cc(F)ccc43)ccc12
pIC50 [3]: 5.49
pIC50 [4]: 5.11
inhibition [5]: 79%
inhibition [6]: 77%
inhibition at 10 µM [7]: 98%
inhibition [8]: 88%
half-life [9]: 53 min
pIC50 [10]: < 5.30
pIC50 [11]: < 5.30
pIC50 [12]: < 4.40
pIC50 [1]: 8.22
pKi [2]: 8.22
pIC50 [13]: 5.32

O=c1[nH]c2cc(/C=C3\c4ccccc4COc4cc(F)ccc43)ccc2n1[C@@H]1C[C@@H]2COCCN2C1
pIC50 [3]: 5.80
pIC50 [4]: < 4.52
inhibition [5]: 62%
inhibition [6]: 49%
inhibition at 10 µM [7]: 62%
inhibition [8]: 76%
half-life [9]: 34 min
pIC50 [10]: < 4.60
pIC50 [11]: < 4.60
pIC50 [12]: < 4.60
pIC50 [1]: 7.64
pKi [2]: 8.05
pIC50 [13]: 5.24

O=C1COc2ccc(C#Cc3ccc(F)cc3F)cc2N1
pIC50 [1]: 6.11
pKi [2]: 6.84

O=C1COc2ccc(S(=O)(=O)N3c4ccccc4COc4cc(F)ccc43)cc2N1
pIC50 [3]: 5.81
pIC50 [4]: 4.67
inhibition [5]: 34%
inhibition [6]: 1%
inhibition at 10 µM [7]: 28%
inhibition [8]: 24%
pIC50 [1]: 7.25
pKi [2]: 6.89

O=C1Nc2cc(S(=O)(=O)N3c4ccccc4COc4cc(F)ccc43)ccc2C12CCNCC2
pIC50 [1]: 5.28
pKi [2]: 5.26

O=C(c1ccc2c(c1)NC(=O)C21CCNCC1)N1c2ccccc2COc2cc(F)ccc21
pIC50 [1]: 5.31
pKi [2]: 5.96

O=C1Nc2cc(CN3c4ccccc4COc4cc(F)ccc43)ccc2C12CCNCC2
pIC50 [1]: 5.52
pKi [2]: 5.97

O=C(O)CCN1CCC2(CC1)C(=O)Nc1cc(/C=C3\c4ccccc4COc4cc(F)ccc43)ccc12
pIC50 [3]: 4.90
pIC50 [4]: 4.52
inhibition [5]: 36%
inhibition [6]: 60%
inhibition at 10 µM [7]: 32%
inhibition [8]: 75%
half-life [9]: > 60 min
pIC50 [10]: < 4.92
pIC50 [11]: < 4.92
pIC50 [12]: < 4.92
pIC50 [1]: 7.54
pKi [2]: 7.80
pIC50 [13]: 4.59

O=S1(=O)Cc2ccc(/C=C3\c4ccccc4COc4cc(F)ccc43)cc2N1
pIC50 [1]: 5.59
pKi [2]: 6.16

O=C1COc2ccc(/C=C\c3ccc(F)cc3F)cc2N1
pIC50 [1]: 5.82
pKi [2]: 6.59

O=C1COc2ccc(CN3c4ccccc4COc4cc(F)ccc43)cc2N1
pIC50 [3]: 6.19
pIC50 [4]: 4.79
inhibition [5]: 94%
inhibition [6]: 47%
inhibition at 10 µM [7]: 29%
inhibition [8]: 72%
pIC50 [1]: 6.75
pKi [2]: 7.51
pIC50 [13]: 5.26

O=C1COc2ccc(N(Cc3cccnc3)c3ccc(F)cc3)cc2N1
pIC50 [1]: 5.82
pKi [2]: 5.84

O=C1CCc2c(/C=C3\c4ccccc4COc4cc(F)ccc43)cccc21
pIC50 [1]: 6.83
pKi [2]: 7.89

O=C1COc2ccc(S(=O)(=O)N(Cc3cccnc3)c3ccc(F)cc3)cc2N1
pIC50 [1]: < 8.00
pKi [2]: < 8.00

O=C1COc2ccc(CCc3ccc(F)cc3F)cc2N1
pIC50 [1]: 6.99
pKi [2]: 7.70

O=C1COc2ccc(/C=C/c3ccc(F)cc3F)cc2N1
pIC50 [1]: 5.64
pKi [2]: 6.79

OC1CCc2c(/C=C3\c4ccccc4COc4cc(F)ccc43)cccc21 (stereo unspecified)
pIC50 [1]: 6.50
pKi [2]: 7.85
